Test results from paper PMC8745178, “Methyl 2-Halo-4-Substituted-5-Sulfamoyl-Benzoates as High Affinity and Selective Inhibitors of Carbonic Anhydrase IX” (International Journal of Molecular Sciences, 2021).

Experiments:
[1] = target: CAI (Homo sapiens, UniProt P00915); assay: fluorescent thermal shift assay (FTSA), CAI; type: binding; conditions: 37 °C; for ΔGintr CAI: converted from Kd_intr, independent of pH; for ΔGobs CAI: converted from Kd_obs, pH 7.0, FTSA
[2] = target: CAII (Homo sapiens, UniProt P00918); assay: fluorescent thermal shift assay (FTSA), CAII; type: binding; conditions: 37 °C; for ΔGintr CAII: converted from Kd_intr, independent of pH; for ΔGobs CAII: converted from Kd_obs, pH 7.0, FTSA
[3] = target: CAIII (Homo sapiens, UniProt P07451); assay: fluorescent thermal shift assay (FTSA), CAIII; type: binding; conditions: 37 °C; for ΔGintr CAIII: converted from Kd_intr, independent of pH; for ΔGobs CAIII: converted from Kd_obs, pH 7.0, FTSA
Sequence of CAIII (P07451 whole entry): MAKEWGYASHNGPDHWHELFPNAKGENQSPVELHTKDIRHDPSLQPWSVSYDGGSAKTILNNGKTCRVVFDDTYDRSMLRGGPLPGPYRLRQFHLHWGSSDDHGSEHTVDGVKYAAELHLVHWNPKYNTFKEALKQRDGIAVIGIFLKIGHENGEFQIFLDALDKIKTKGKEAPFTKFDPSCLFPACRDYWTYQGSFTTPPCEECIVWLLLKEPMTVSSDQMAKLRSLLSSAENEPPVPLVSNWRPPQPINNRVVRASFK

[4] = target: CAIV (Homo sapiens, UniProt P22748); assay: fluorescent thermal shift assay (FTSA), CAIV; type: binding; conditions: 37 °C; for ΔGintr CAIV: converted from Kd_intr, independent of pH; for ΔGobs CAIV: converted from Kd_obs, pH 7.0, FTSA
Sequence of CAIV (P22748 19-312): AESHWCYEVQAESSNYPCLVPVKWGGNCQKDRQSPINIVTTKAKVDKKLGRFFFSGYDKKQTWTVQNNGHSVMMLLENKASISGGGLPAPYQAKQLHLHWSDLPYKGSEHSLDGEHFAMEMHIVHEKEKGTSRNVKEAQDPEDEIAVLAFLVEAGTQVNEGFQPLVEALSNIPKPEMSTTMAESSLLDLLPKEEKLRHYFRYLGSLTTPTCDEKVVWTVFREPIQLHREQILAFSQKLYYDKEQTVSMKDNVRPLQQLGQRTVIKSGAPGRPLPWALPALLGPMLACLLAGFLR

[5] = target: CAVA (Homo sapiens, UniProt P35218); assay: fluorescent thermal shift assay (FTSA), CAVA; type: binding; conditions: 37 °C; for ΔGintr CAVA: converted from Kd_intr, independent of pH; for ΔGobs CAVA: converted from Kd_obs, pH 7.0, FTSA
Sequence of CAVA (P35218 39-305): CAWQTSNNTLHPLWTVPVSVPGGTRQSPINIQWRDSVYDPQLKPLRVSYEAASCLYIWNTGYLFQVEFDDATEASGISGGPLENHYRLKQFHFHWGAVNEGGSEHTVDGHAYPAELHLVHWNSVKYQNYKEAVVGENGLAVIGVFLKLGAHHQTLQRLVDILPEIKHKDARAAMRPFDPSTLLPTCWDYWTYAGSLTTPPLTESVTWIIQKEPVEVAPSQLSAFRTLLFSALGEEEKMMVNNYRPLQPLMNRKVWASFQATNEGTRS

[6] = target: CAVB (Homo sapiens, UniProt Q9Y2D0); assay: fluorescent thermal shift assay (FTSA), CAVB; type: binding; conditions: 37 °C; for ΔGintr CAVB: converted from Kd_intr, independent of pH; for ΔGobs CAVB: converted from Kd_obs, pH 7.0, FTSA
Sequence of CAVB (Q9Y2D0 34-317): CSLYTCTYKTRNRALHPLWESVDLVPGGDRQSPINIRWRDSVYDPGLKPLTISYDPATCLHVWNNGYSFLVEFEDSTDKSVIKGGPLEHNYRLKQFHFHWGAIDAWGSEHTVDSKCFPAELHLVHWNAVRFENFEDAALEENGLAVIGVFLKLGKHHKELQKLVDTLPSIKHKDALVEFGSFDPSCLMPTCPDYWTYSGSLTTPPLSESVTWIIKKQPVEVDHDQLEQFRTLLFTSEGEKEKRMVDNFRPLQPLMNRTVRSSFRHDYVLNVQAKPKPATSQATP

[7] = target: CAVI (Homo sapiens, UniProt P23280); assay: fluorescent thermal shift assay (FTSA), CAVI; type: binding; conditions: 37 °C; for ΔGintr CAVI: converted from Kd_intr, independent of pH; for ΔGobs CAVI: converted from Kd_obs, pH 7.0, FTSA
Sequence of CAVI (P23280 18-308): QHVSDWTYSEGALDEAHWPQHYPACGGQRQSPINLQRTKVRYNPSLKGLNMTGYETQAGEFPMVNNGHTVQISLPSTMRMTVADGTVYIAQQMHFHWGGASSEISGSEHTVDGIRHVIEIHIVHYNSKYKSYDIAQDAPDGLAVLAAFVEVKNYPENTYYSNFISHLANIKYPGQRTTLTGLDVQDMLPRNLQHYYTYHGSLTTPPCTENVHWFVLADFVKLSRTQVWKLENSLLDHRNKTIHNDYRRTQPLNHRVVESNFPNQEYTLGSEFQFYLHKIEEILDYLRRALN

[8] = target: CAVII (Homo sapiens, UniProt P43166); assay: fluorescent thermal shift assay (FTSA), CAVII; type: binding; conditions: 37 °C; for ΔGintr CAVII: converted from Kd_intr, independent of pH; for ΔGobs CAVII: converted from Kd_obs, pH 7.0, FTSA
Sequence of CAVII (P43166 whole entry): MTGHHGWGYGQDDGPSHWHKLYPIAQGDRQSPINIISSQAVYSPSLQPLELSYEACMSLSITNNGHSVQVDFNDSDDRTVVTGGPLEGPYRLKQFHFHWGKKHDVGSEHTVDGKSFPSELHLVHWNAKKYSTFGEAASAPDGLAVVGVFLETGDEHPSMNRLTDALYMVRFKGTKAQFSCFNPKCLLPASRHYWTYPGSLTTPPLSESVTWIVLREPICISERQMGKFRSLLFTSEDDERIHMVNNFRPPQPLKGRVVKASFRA

[9] = target: CAIX (Homo sapiens, UniProt Q16790); assay: fluorescent thermal shift assay (FTSA), CAIX; type: binding; conditions: for ΔGobs CAIX: pH 7
[10] = target: CAXII (Homo sapiens, UniProt O43570); assay: fluorescent thermal shift assay (FTSA), CAXII; type: binding; conditions: 37 °C; for ΔGintr CAXII: converted from Kd_intr, independent of pH; for ΔGobs CAXII: converted from Kd_obs, pH 7.0, FTSA
Sequence of CAXII (O43570 25-354): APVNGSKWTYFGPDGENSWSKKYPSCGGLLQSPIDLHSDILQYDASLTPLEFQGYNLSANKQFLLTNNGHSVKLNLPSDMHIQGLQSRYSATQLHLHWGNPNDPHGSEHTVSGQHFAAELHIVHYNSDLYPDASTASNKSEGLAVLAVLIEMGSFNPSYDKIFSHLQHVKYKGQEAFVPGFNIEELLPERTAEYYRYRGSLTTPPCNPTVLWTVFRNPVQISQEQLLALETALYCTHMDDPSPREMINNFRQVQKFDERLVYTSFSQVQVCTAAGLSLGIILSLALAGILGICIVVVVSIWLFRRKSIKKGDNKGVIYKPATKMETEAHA

[11] = target: CAXIII (Homo sapiens, UniProt Q8N1Q1); assay: fluorescent thermal shift assay (FTSA), CAXIII; type: binding; conditions: 37 °C; for ΔGintr CAXIII: converted from Kd_intr, independent of pH; for ΔGobs CAXIII: converted from Kd_obs, pH 7.0, FTSA
Sequence of CAXIII (Q8N1Q1 whole entry): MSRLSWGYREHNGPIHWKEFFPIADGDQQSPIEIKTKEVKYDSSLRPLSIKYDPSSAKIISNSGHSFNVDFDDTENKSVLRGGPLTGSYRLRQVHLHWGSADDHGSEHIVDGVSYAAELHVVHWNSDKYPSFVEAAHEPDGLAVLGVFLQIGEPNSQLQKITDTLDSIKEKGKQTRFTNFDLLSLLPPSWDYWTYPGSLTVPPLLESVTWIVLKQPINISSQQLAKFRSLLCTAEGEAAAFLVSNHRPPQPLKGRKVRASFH

[12] = target: CAXIV (Homo sapiens, UniProt Q9ULX7); assay: fluorescent thermal shift assay (FTSA), CAXIV; type: binding; conditions: 37 °C; for ΔGintr CAXIV: converted from Kd_intr, independent of pH; for ΔGobs CAXIV: converted from Kd_obs, pH 7.0, FTSA
Sequence of CAXIV (Q9ULX7 16-337): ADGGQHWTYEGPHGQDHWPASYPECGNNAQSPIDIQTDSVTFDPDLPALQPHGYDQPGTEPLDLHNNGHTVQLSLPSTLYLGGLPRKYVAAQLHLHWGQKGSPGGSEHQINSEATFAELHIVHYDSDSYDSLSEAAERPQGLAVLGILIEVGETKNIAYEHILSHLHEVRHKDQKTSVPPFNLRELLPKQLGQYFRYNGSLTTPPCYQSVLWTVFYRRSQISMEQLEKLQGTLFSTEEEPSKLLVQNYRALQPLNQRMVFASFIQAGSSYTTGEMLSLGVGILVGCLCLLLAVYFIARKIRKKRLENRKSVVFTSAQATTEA

[13] = determination of pKa of the sulfonamide group by UV-VIS spectra at various pH; type: physicochemical; conditions: for f RSO2NH-, fraction of deprotonated sulfonamide: at pH 7.0, calculated from pKa; for pKa: calculated from spectra at various pH, 37 °C
[14] = solubility observed visually and in absorption spectra; type: physicochemical; parameters: key: low solubility, LS

Sequence of CAI (P00915 whole entry): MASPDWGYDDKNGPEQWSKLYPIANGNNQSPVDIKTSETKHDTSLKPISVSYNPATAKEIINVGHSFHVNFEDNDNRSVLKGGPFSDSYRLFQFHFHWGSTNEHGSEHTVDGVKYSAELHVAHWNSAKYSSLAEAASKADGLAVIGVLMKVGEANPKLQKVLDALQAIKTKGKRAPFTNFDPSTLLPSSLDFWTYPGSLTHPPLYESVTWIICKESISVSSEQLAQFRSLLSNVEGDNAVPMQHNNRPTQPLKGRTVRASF

Structure (SMILES)	ΔGintr CAI [1] [kcal/mol]	ΔGobs CAI [1] [kcal/mol]	ΔGintr CAII [2] [kcal/mol]	ΔGobs CAII [2] [kcal/mol]	ΔGintr CAIII [3] [kcal/mol]	ΔGobs CAIII [3] [kcal/mol]	ΔGintr CAIV [4] [kcal/mol]	ΔGobs CAIV [4] [kcal/mol]	ΔGintr CAVB [6] [kcal/mol]	ΔGobs CAVB [6] [kcal/mol]	ΔGintr CAVI [7] [kcal/mol]	ΔGobs CAVI [7] [kcal/mol]	ΔGobs CAVII [8] [kcal/mol]	ΔGobs CAIX [9] [kcal/mol]	ΔGintr CAXII [10] [kcal/mol]	ΔGobs CAXII [10] [kcal/mol]	ΔGobs CAXIII [11] [kcal/mol]	ΔGintr CAXIV [12] [kcal/mol]	ΔGobs CAXIV [12] [kcal/mol]	f RSO2NH-, fraction of deprotonated sulfonamide [13] [%]	other results
COC(=O)c1cc(S(N)(=O)=O)c(S(=O)(=O)C2CCCCC2)cc1Br [Compound 8b, Methyl 2-bromo-4-cyclohexylsulfonyl-5-sulfamoylbenzoate]	≥ -9.42	≥ -5.26	≥ -9.87	≥ -5.26	≥ -10.3	≥ -5.26	-11	-6.17	≥ -9.8	≥ -5.26	≥ -10.9	≥ -5.26	≥ -5.26	-7.34	≥ -9.94	≥ -5.26	-5.88	≥ -9.94	≥ -5.26	0.1	ΔGintr CAVA [5]: ≥ -9.61 kcal/mol; ΔGobs CAVA [5]: ≥ -5.26 kcal/mol; ΔGintr CAVII [8]: ≥ -9.94 kcal/mol; ΔGintr CAIX [9]: -51.2; ΔGintr CAXIII [11]: -10.1 kcal/mol; pKa [13]: 9.9
COC(=O)c1cc(S(N)(=O)=O)c(Cl)cc1Sc1ccccc1 [Compound 5a, Methyl 4-chloro-2-(phenylsulfanyl)-5-sulfamoylbenzoate]	-11.2	-7.77	-14.5	-10.6	–	–	-15.3	-11.1	-13.2	-9.37	-14.4	-9.51	-10.3	-12.2	-15.7	-11.7	-10.9	-14.9	-10.9	0.4	ΔGintr CAVA [5]: ≥ -8.91 kcal/mol; ΔGobs CAVA [5]: ≥ -5.26 kcal/mol; ΔGintr CAVII [8]: -14.4 kcal/mol; ΔGintr CAIX [9]: -16.4 kcal/mol; solubility [14]: LS
COC(=O)c1cc(S(N)(=O)=O)c(Cl)cc1S(=O)(=O)Cc1ccccc1 [Compound 9c, Methyl 2-benzylsulfonyl-4-chloro-5-sulfamoylbenzoate]	-10.7	-8.87	-14	-11.8	-11.6	-9.01	-12.5	-9.94	-14.9	-12.7	-14.3	-11.1	-12.2	-12.2	-13.2	-10.9	-11.8	-14.5	-12.2	5.9	ΔGintr CAXIII [11]: -13.6 kcal/mol; pKa [13]: 8.2
COC(=O)c1cc(S(N)(=O)=O)c(Cl)cc1Sc1cccc2ccccc12 [Compound 5f, Methyl 4-chloro-2-(1-naphthylsulfanyl)-5-sulfamoyl-benzoate]	-9.94	-6.5	-13.8	-9.87	≥ -9.54	≥ -5.26	-10.1	-5.93	-12.8	-8.91	-11.8	-6.88	-8.46	-10.9	–	–	-10.3	-9.94	-5.95	0.4	ΔGintr CAVA [5]: -9.37 kcal/mol; ΔGobs CAVA [5]: -5.71 kcal/mol; ΔGintr CAIX [9]: -15.1 kcal/mol; ΔGintr CAXIII [11]: -13.7 kcal/mol; solubility [14]: LS
COC(=O)c1cc(S(N)(=O)=O)c(S(=O)(=O)CCc2ccccc2)cc1Cl [Compound 7d, Methyl 2-chloro-4-(2-phenylethylsulfonyl)-5-sulfamoylbenzoate]	-9.27	–	≥ -9.73	≥ -5.26	≥ -10.1	≥ -5.26	≥ -9.99	≥ -5.26	≥ -9.66	≥ -5.26	-10.9	-5.5	≥ -5.26	-7.34	-10.9	-6.33	-6.6	≥ -9.8	≥ -5.26	0.2	ΔGintr CAVA [5]: ≥ -9.46 kcal/mol; ΔGobs CAVA [5]: ≥ -5.26 kcal/mol; ΔGintr CAVII [8]: ≥ -9.8 kcal/mol; ΔGintr CAIX [9]: -12.1 kcal/mol; ΔGintr CAXIII [11]: -10.6 kcal/mol; solubility [14]: LS
COC(=O)c1cc(S(N)(=O)=O)c(Cl)cc1S(=O)(=O)c1cccc2ccccc12 [Compound 9f, Methyl 4-chloro-2-(1-naphthylsulfonyl)-5-sulfamoylbenzoate]	-11.8	-9.7	-15.2	-12.6	–	–	-13.1	-10.3	-14.5	-12	-13.4	-9.94	-13	-11.4	-13	-10.4	-12.6	-14.5	-11.9	3.8	ΔGintr CAVII [8]: -15.6 kcal/mol; ΔGintr CAXIII [11]: -14.7 kcal/mol; pKa [13]: 8.4
COC(=O)c1cc(S(N)(=O)=O)c(Cl)cc1SCc1ccccc1 [Compound 5c, Methyl 2-benzylsulfanyl-4-chloro-5-sulfamoylbenzoate]	-11.5	-8.08	-14.5	-10.6	≥ -9.54	≥ -5.26	–	–	-12.8	-8.99	–	-9.3	-9.8	-11.1	-13.1	-9.08	-9.94	-14.4	-10.4	0.4	ΔGintr CAVII [8]: -13.8 kcal/mol; ΔGintr CAIX [9]: -15.3 kcal/mol; ΔGintr CAXIII [11]: -13.4 kcal/mol; solubility [14]: LS
COC(=O)c1cc(S(N)(=O)=O)c(Cl)cc1Cl [Compound 1, Methyl 2,4-dichloro-5-sulfamoyl-benzoate]	-9.63	-6.88	-13.3	-10.1	-9.68	-6.09	-13	-9.56	-12.4	-9.23	-13.8	-9.61	-10.2	-10.3	-12.2	-8.87	-10	-13.4	-10.1	1.2	ΔGintr CAVA [5]: -10.3 kcal/mol; ΔGobs CAVA [5]: -7.34 kcal/mol; ΔGintr CAVII [8]: -13.5 kcal/mol; ΔGintr CAIX [9]: -13.7 kcal/mol; pKa [13]: 8.9
